# Laboratory results reported in patent US4734418A, “Quinazoline compounds and antihypertensives” (priority 1984, dated 1988).
# Where two headings read alike, the source gives them in different places.
# System: Spontaneously Hypertensive Rats
# Assay: Test 1: antihypertensive effects (systolic tail artery blood pressure) and heart rate in spontaneously hypertensive rats, oral
# Format: in vivo, rat (male, SHR)
# Conditions: SHR, oral 1 mg/Kg; for change in vivo at 1 mg/kg: Rattus norvegicus; for Change (%) in heart rate: maximum value
# Experimental: The antihypertensive effects of the certain compounds of this invention were studied in the following manner.
# Among male, spontaneously hypertensive rats (SHRs) of 20 weeks of age or older and 350-430 g heavy all of which had developed hypertension, those having systolic blood pressures of 180 mmHg or higher were used in groups, each of which was constituted of 3-4 of the rats. […] Besides, heart rates were also measured simultaneously. The compounds were each dissolved or suspended in a 0.5% methylcellulose solution and then administered orally.
# *All administered orally at a dosage of 1 mg/Kg except for the compounds
# **Each percent change in heart rate is indicated by the corresponding
# [1] = 1 hour, read-out: Antihypertensive effects, change (%) in blood pressure, 1 hour later
# [2] = 3 hours, read-out: Antihypertensive effects, change (%) in blood pressure, 3 hours later
# [3] = 6 hours, read-out: Antihypertensive effects, change (%) in blood pressure, 6 hours later
# [4] = 24 hours, read-out: Antihypertensive effects, change (%) in blood pressure, 24 hours later
Structure (SMILES),change in vivo at 1 mg/kg [1] [%],change in vivo at 1 mg/kg [2] [%],change in vivo at 1 mg/kg [3] [%],change in vivo at 1 mg/kg [4] [%],Change (%) in heart rate
COc1cc2nc(N3CCN(c4ncc5c(n4)CN(C4CCCCC4)C5=O)CC3)nc(N)c2cc1OC [Example 91],-4,-8,-12.9,-2.5,+8.2%
COc1cc2nc(N3CCN(c4ncc(C(C)=O)c(C)n4)CC3)nc(N)c2cc1OC [Example 36],-14.6,-16.5,-15,-2.4,+9.5%
"COc1cc2nc(N3CCN(c4ccc5ccccc5n4)CC3)nc(N)c2cc1OC.Cl [Example 94, 4-Amino-6,7-dimethoxy-2-(4-(2-quinolyl)piperazino)quinazoline hydrochloride]",-0.5,-12.7,-22.1,-5.4,+5.4%
CCNC(=O)c1cnc(N2CCN(c3nc(N)c4cc(OC)c(OC)cc4n3)CC2)nc1 [Example 37],-4.7,-16.4,-21.1,-8.5,+5.8%
CCNC(=O)c1cnc(N2CCN(c3nc(N)c4cc(OC)c(OC)cc4n3)CC2)nc1C(=O)NCC [Example 85],-1.5,-7.3,-12.2,-3.9,+3.5%
CCCn1ccc2nc(N3CCN(c4nc(N)c5cc(OC)c(OC)cc5n4)CC3)ncc2c1=O [Example 5],0,-6.3,-13.2,-6.3,+2.6%
COc1cc2nc(N3CCN(c4ncc5c(n4)CCCC(=O)N5)CC3)nc(N)c2cc1OC [Example 31],-2.8,-8.5,-17.8,-3.8,–
CCN(CC)C(=O)c1cnc(N2CCN(c3nc(N)c4cc(OC)c(OC)cc4n3)CC2)nc1OC [Example 52],-8,-13,-19.5,-3,+3.6%
COc1cc2cnc(N3CCN(c4nc(N)c5cc(OC)c(OC)cc5n4)CC3)nc2cc1OC [Example 71],0.5,-13.4,-19.1,-9.6,+15.9%
CCOC(=O)c1cnc(N2CCN(c3nc(N)c4cc(OC)c(OC)cc4n3)CC2)nc1NC(C)=O [Example 60],-1.6,-5.2,-8.8,-1,+6.0%
CCn1cc(C#N)c2nc(N3CCN(c4nc(N)c5cc(OC)c(OC)cc5n4)CC3)ncc2c1=O [Example 13],-1,-3.9,–,-3.9,+7.4%
COc1cc2nc(N3CCN(c4ncc5c(n4)CC(c4ccccc4)NC5=O)CC3)nc(N)c2cc1OC (stereo not shown) [Example 19],-2.4,-10.1,-11.1,-2.9,+2.9%
CCn1ccc2nc(N3CCN(c4nc(N)c5cc(OC)c(OC)cc5n4)CC3)ncc2c1=S [Example 16],-2,-8.9,-15.3,-8.9,+7.5%
CCOC(=O)c1cnc(N2CCN(c3nc(N)c4cc(OC)c(OC)cc4n3)CC2)nc1C(=O)OCC [Example 84],0.5,0,-1.5,-0.5,+2.2%
CNC(=O)c1cnc(N2CCN(c3nc(N)c4cc(OC)c(OC)cc4n3)CC2)nc1NC [Example 68],1.4,-19.6,-28.2,-11.5,+5.2%
CCN(CC)C(=O)c1cnc(N2CCN(c3nc(N)c4cc(OC)c(OC)cc4n3)CC2)nc1C [Example 42],-16.5,-19.5,-24,-7.5,+5.2%
CCOC(=O)c1cnc(N2CCN(c3nc(N)c4cc(OC)c(OC)cc4n3)CC2)nc1N(C)C [Example 56],-21.4,-22.4,-22.9,-4.5,+13.5%

Structure (SMILES),change in vivo at 1 mg/kg [1] [%],change in vivo at 1 mg/kg [2] [%],change in vivo at 1 mg/kg [3] [%],change in vivo at 1 mg/kg [4] [%],Change (%) in heart rate
COc1cc2nc(N3CCN(c4ncc5c(=O)n(CCO)ccc5n4)CC3)nc(N)c2cc1OC [Example 7],1.5,-4.4,-9.3,-2.9,+2.8%
CCOC(=O)c1cc2nc(N3CCN(c4nc(N)c5cc(OC)c(OC)cc5n4)CC3)ncc2c(=O)n1CC [Example 18],0,-3.9,-9.8,-3.9,+11.1%
CCCCN1Cc2nc(N3CCN(c4nc(N)c5cc(OC)c(OC)cc5n4)CC3)ncc2C1=O [Example 27],-5.4,-17.6,-21,-2.4,+8.3%
CCn1cc(C=O)c2nc(N3CCN(c4nc(N)c5cc(OC)c(OC)cc5n4)CC3)ncc2c1=O [Example 14],-1.9,-4.8,-13.9,-11,+7.3%
CCNC(=O)c1cnc(N2CCN(c3nc(N)c4cc(OC)c(OC)cc4n3)CC2)nc1C [Example 41],-11.2,-19.5,-25.9,-3.9,+9.2%
CCNc1nc(N2CCN(c3nc(N)c4cc(OC)c(OC)cc4n3)CC2)ncc1C(=O)N(CC)CC [Example 67],-21.4,-28.6,-38.4,-16.7,+7.4%
COc1cc2nc(N3CCN(c4ncc(C(N)=O)c(C)n4)CC3)nc(N)c2cc1OC [Example 40],-1.4,-15.9,-18.4,-8.2,+5.8%
COc1cc2nc(N3CCN(c4ncc5c(=O)n(-c6ccccc6)ccc5n4)CC3)nc(N)c2cc1OC [Example 9],-1.5,-8.1,-9.6,-5.1,+4.3%
"CCn1ccc2nc(N3CCN(c4ncc5ccccc5n4)CC3)ncc2c1=O [Example 96, 2-(4-(5,6-Dihydro-6-ethyl-5-oxopyrido[4,3-d]pyrimidine-2-yl)piperazino)quinazoline]",3,-2.5,-8,-6.5,+2.9%
CCOc1nccc2nc(N3CCN(c4nc(N)c5cc(OC)c(OC)cc5n4)CC3)ncc12 [Example 74],-0.5,-14.1,-23.3,-12.1,+9.0%
COc1cc2nc(N3CCN(c4nc(N(C)C)c5cc(OC)c(OC)cc5n4)CC3)nc(N)c2cc1OC [Example 73],-0.5,0,-7,-8,+4.3%
CCCCCCCN1Cc2nc(N3CCN(c4nc(N)c5cc(OC)c(OC)cc5n4)CC3)ncc2C1=O [Example 90],2.3,-6.8,-15.5,-2.7,+8.7%
COc1cc2nc(N3CCN(c4ncc5c(=O)[nH]ccc5n4)CC3)nc(N)c2cc1OC [Example 3],-2.5,-8,-15.1,-5,+7.1%
CCNc1nc(N2CCN(c3nc(N)c4cc(OC)c(OC)cc4n3)CC2)ncc1C(=O)N(C)C [Example 79],-27.9,-33.7,-45.2,-21.2,+22.3%
CCNc1nc(N2CCN(c3nc(N)c4cc(OC)c(OC)cc4n3)CC2)ncc1C(=O)OCC [Example 57],-10.4,-18.9,-27.9,-9,+4.3%
COc1cc2nc(N3CCN(c4ncc(C(=O)NCc5ccccc5)c(C)n4)CC3)nc(N)c2cc1OC [Example 44],9.1,0,-4,0,+7.9%
